Assay results taken from patent publication US20130012432A1, “Peptides for Treatment of Obesity” (Novo Nordisk A/S, priority 2010, published 2013).
≈ marks a conversion by molar mass, not a printed value. Positions of bridges follow the written chain, without caps; N, C: chain ends. Non-standard residues stand in square brackets, D forms with d. Residues, ends and D or L forms follow the SMILES beside them. Groups on a side chain read outwards from the residue. *: point of attachment. Palmitoyl(16-(5-tetrazolyl)) = O=C(CCCCCCCCCCCCCCCc1nnn[nH]1)*; Lys(CH2CO2H)2 = N[C@@H](CCCCN(CC(=O)O)CC(=O)O)C(=O)O; X1 = O=C(O)CCCCCCCCCCCCCCCCC(=O)NCCOCCOCCN*; Hyp = O=C(O)[C@@H]1C[C@@H](O)CN1; NTA = O=C(O)CN(CC(=O)O)CC(=O)*; hCys = N[C@@H](CCS)C(=O)O; Dab = NCC[C@H](N)C(=O)O; Dap = NC[C@H](N)C(=O)O; AEEA = NCCOCCOCC(=O)O

Columns and labels:
[1] = biological target: human MC4 receptor (Homo sapiens, UniProt P32245); assay: biochemical
human MC4 receptor, sequence (P32245 whole entry): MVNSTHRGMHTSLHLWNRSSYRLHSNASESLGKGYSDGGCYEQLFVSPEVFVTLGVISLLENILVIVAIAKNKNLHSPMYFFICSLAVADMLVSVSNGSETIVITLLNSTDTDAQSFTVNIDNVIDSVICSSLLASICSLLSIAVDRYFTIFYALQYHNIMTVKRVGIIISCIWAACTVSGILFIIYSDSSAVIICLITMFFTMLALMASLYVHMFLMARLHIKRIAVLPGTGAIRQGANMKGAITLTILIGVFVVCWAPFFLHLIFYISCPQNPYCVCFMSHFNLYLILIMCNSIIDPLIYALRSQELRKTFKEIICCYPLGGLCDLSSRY
Protocol: Assay (V)—Melanocortin Receptor 4 (MC4) Binding Assay
In Vitro ^125NDP-α-MSH Binding to Recombinant BHK Cells Expressing Human MC4 Receptor (Filtration Assay).
The assay was performed in 5 ml minisorb vials (Sarstedt No. 55.526) or in 96-well filter-plates (Millipore MADVN 6550), and using BHK cells expressing the human MC4 receptor using BHK cells stably expressing the human MC4 receptor. The membranes were prepared from frozen or fresh cells that were homogenized in 20 mM HEPES pH 7.1, 5 mM MgCl2 and 1 mg/ml bacitracin and centrifuged at 15000 rpm at 4° C., 10 min in a Sorvall RC 5B plus, SS-34 rotor. The supernatant was discarded, and the pellets were re-suspended in buffer, homogenized and centrifuged two more times. The final pellets were resuspended in the buffer mentioned above, and the protein concentration was measured and adjusted with buffer to 14 to 17 mg/ml and the membrane preparation were kept at −80° C. until assay. The assay was run directly on a dilution of this cell membrane suspension, without any further preparation. The BHK cell membranes are kept at −80° C. until assay, and the assay is run directly on a dilution of this cell membrane suspension, without further preparation. The suspension is diluted to give maximally 10% specific binding, i.e. to approx. 50-100 fold dilution. The assay was performed in a total volume of 200 μl: 50 μl of cell suspension, 50 μl of ^125NDP-α-MSH (≈79 pM in final concentration), 50 μl of test compound and 50 μl binding buffer (pH 7) mixed and incubated for 2 h at 25° C. [binding buffer: 25 mM HEPES, pH 7.0, 1 mM CaCl2, 1 mM MgSO4, 1 mM EGTA, 0.02% Bacitracin, 0.005% Tween™ 20 and 0.1% HSA or, alternatively, 0.1% ovalbumin (Sigma; catalogue No. A-5503)]. Test compounds were dissolved in DMSO and diluted in binding buffer. Radiolabelled ligand and membranes were diluted in binding buffer. The incubation was stopped by dilution with 2×100 μl ice-cold 0.9% NaCl. The radioactivity retained on the filters was counted using a Cobra II auto gamma counter.
The data were analysed by non-linear regression analysis of binding curves, using the Windows™ program GraphPad™ Prism (GraphPad Software, USA).

[2] = physchem
Protocol: From a stock solution in vehicle, either H2O or 10 mM phosphate, containing 1 mg (as weighed) compound per ml, 8-11 aliquots are withdrawn and pH-adjusted individually with HCl/NaOH, to cover the whole pH range.

[3] = biological target: MC1 receptor (Homo sapiens, UniProt Q01726); assay: biochemical
MC1 receptor, sequence (Q01726 whole entry): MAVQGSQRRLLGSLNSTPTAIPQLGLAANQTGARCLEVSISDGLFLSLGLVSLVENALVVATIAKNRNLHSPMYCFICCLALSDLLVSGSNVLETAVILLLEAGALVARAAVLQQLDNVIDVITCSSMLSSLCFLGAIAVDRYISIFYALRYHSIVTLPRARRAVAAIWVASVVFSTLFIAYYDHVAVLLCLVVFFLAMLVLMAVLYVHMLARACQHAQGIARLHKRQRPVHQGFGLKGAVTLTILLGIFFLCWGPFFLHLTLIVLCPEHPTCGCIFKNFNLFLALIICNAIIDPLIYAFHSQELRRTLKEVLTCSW
In short: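 Compounds competed against 125I-NDP-α-MSH (22 pM final) for binding to stably MC1-expressing BHK cell membranes, 30 °C for 90 min in HEPES pH 7.4 buffer with 0.1% HSA or ovalbumin. Bound ligand collected by filtration and counted; binding curves analysed by non-linear regression.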

SMILES	solubility ([2]; pH 7, Solubility Conc.) [µM]	solubility ([2]; pH 7.3, Solubility Conc.) [µM]	solubility ([2]; pH 7.4, Solubility Conc.) [µM]	solubility ([2]; pH 7.5, Solubility Conc.) [µM]	solubility ([2]; pH 7.6, Solubility Conc.) [µM]	solubility ([2]; pH 7.8, Solubility Conc.) [µM]	solubility ([2]; pH 8, Solubility Conc.) [µM]	Ki [3] [µM]	solubility ([2]; pH 7.7, Solubility Conc.) [µM]	solubility ([2]; pH 5.3, Solubility Conc.) [µM]	solubility ([2]; pH 6.4, Solubility Conc.) [µM]	further results
CC(=O)N[C@H]1CC(=O)NC[C@@H](C(=O)N2CCC[C@H]2C(=O)N2CCC[C@H]2C(=O)N[C@@H](CCCNC(=N)N)C(=O)N[C@@H](CC(=O)O)C(=O)N[C@@H](CCCCNC(=O)CN(CC(=O)O)CC(=O)O)C(=O)N[C@@H](CCCCNC(=O)COCCOCCNC(=O)CCCCCCCCCCCCCCCc2nnn[nH]2)C(N)=O)NC(=O)[C@H](Cc2c[nH]c3ccccc23)NC(=O)[C@H](CCCNC(=N)N)NC(=O)[C@@H](Cc2ccccc2)NC(=O)[C@H](Cc2c[nH]cn2)NC1=O [Example 24, Ac-c[Asp-His-D-Phe-Arg-Trp-Dap]-Pro-Pro-Arg-Asp-Lys(BCMA)-Lys[(2-{2-[16-(tetrazol-5-yl)hexadecanoylamino]ethoxy}ethoxy)acetyl]-NH2] (Ac-DH[dF]RW[Dap]PPRDK(NTA)K([AEEA-Palmitoyl(16-(5-tetrazolyl))])-NH2; lactam 1-6)	–	–	–	–	–	–	–	–	–	–	–	Ki [1]: 107 nM
CC(=O)N[C@H]1CCC(=O)NCCCC[C@@H](C(=O)N2C[C@H](O)C[C@H]2C(=O)N2C[C@H](O)C[C@H]2C(=O)N[C@@H](CCCNC(=N)N)C(=O)N[C@@H](CC(=O)O)C(=O)N[C@@H](CCCCN(CC(=O)O)CC(=O)O)C(=O)N[C@@H](CCCCNC(=O)COCCOCCNC(=O)CCCCCCCCCCCCCCCc2nnn[nH]2)C(N)=O)NC(=O)[C@H](Cc2c[nH]c3ccccc23)NC(=O)[C@H](CCCNC(=N)N)NC(=O)[C@@H](Cc2ccccc2)NC(=O)[C@H](Cc2c[nH]cn2)NC1=O [Example 48, Ac-c[Glu-His-D-Phe-Arg-Trp-Lys]-Hyp-Hyp-Arg-Asp-Lys(biscarboxymethyl)-Lys[(2-{2-[16-(tetrazol-5-yl)hexadecanoylamino]ethoxy}ethoxy)acetyl]-NH2] (Ac-EH[dF]RWK[Hyp][Hyp]RD[Lys(CH2CO2H)2]K([AEEA-Palmitoyl(16-(5-tetrazolyl))])-NH2; lactam 1-6)	107 (≈ 240 µg/mL)	218 (≈ 490 µg/mL)	309 (≈ 694 µg/mL)	368 (≈ 827 µg/mL)	416 (≈ 935 µg/mL)	430 (≈ 966 µg/mL)	420 (≈ 944 µg/mL)	> 10	–	–	–	solubility ([2]; pH 6.7, Solubility Conc.): 54 µM (≈ 121 µg/mL); solubility ([2]; pH 8.1, Solubility Conc.): 418 µM (≈ 939 µg/mL); solubility ([2]; pH 8.3, Solubility Conc.): 412 µM (≈ 926 µg/mL)
CC(=O)N[C@H]1CC(=O)NC[C@@H](C(=O)N2CCC[C@H]2C(=O)N2CCC[C@H]2C(=O)N[C@@H](CCCNC(=N)N)C(=O)N[C@@H](CC(=O)O)C(=O)N[C@@H](CCCCN(CC(=O)O)CC(=O)O)C(=O)N[C@@H](CCCCNC(=O)COCCOCCNC(=O)CCCCCCCCCCCCCCCc2nnn[nH]2)C(N)=O)NC(=O)[C@H](Cc2c[nH]c3ccccc23)NC(=O)[C@H](CCCNC(=N)N)NC(=O)[C@@H](Cc2ccccc2)NC(=O)[C@H](Cc2c[nH]cn2)NC1=O [Example 41, Ac-c[Asp-His-D-Phe-Arg-Trp-Dap]-Pro-Pro-Arg-Asp-Lys(biscarboxymethyl)-Lys[(2-{2-[16-(tetrazol-5-yl)hexadecanoylamino]ethoxy}ethoxy)acetyl]-NH2] (Ac-DH[dF]RW[Dap]PPRD[Lys(CH2CO2H)2]K([AEEA-Palmitoyl(16-(5-tetrazolyl))])-NH2; lactam 1-6)	39 (≈ 84.2 µg/mL)	87 (≈ 188 µg/mL)	160 (≈ 345 µg/mL)	387 (≈ 835 µg/mL)	497 (≈ 1070 µg/mL)	451 (≈ 973 µg/mL)	493 (≈ 1060 µg/mL)	> 10	478 (≈ 1030 µg/mL)	–	–	–
CC(=O)N[C@H]1CCCCNC(=O)C[C@@H](C(=O)N2CCC[C@H]2C(=O)N2CCC[C@H]2C(=O)N[C@@H](CCCNC(=N)N)C(=O)N[C@@H](CC(=O)O)C(=O)N[C@@H](CCCCN(CC(=O)O)CC(=O)O)C(=O)N[C@@H](CCCCNC(=O)COCCOCCNC(=O)CCCCCCCCCCCCCCCc2nnn[nH]2)C(N)=O)NC(=O)[C@H](Cc2c[nH]c3ccccc23)NC(=O)[C@H](CCCNC(=N)N)NC(=O)[C@@H](Cc2ccccc2)NC(=O)[C@H](Cc2c[nH]cn2)NC1=O [Example 11, Ac-c[Lys-His-D-Phe-Arg-Trp-Asp]-Pro-Pro-Arg-Asp-Lys(biscarboxymethyl)-Lys[(2-{2-[16-(tetrazol-5-yl)hexadecanoylamino]ethoxy}ethoxy)acetyl]-NH2] (Ac-KH[dF]RWDPPRD[Lys(CH2CO2H)2]K([AEEA-Palmitoyl(16-(5-tetrazolyl))])-NH2; lactam 1-6)	147 (≈ 323 µg/mL)	479 (≈ 1050 µg/mL)	–	–	472 (≈ 1040 µg/mL)	479 (≈ 1050 µg/mL)	–	> 10	–	29 (≈ 63.8 µg/mL)	36 (≈ 79.2 µg/mL)	solubility ([2]; pH 4.8, Solubility Conc.): 51 µM (≈ 112 µg/mL); solubility ([2]; pH 6, Solubility Conc.): 25 µM (≈ 55 µg/mL); solubility ([2]; pH 7.2, Solubility Conc.): 364 µM (≈ 801 µg/mL)
CC(=O)N[C@H]1CCSSC[C@@H](C(=O)N2CCC[C@H]2C(=O)N2CCC[C@H]2C(=O)N[C@@H](CCCCN)C(=O)N[C@@H](CC(=O)O)C(=O)N[C@@H](CNC(=O)CN(CC(=O)O)CC(=O)O)C(=O)N[C@@H](CCCCNC(=O)COCCOCCNC(=O)CCCCCCCCCCCCCCCc2nnn[nH]2)C(N)=O)NC(=O)[C@H](Cc2c[nH]c3ccccc23)NC(=O)[C@H](CCCNC(=N)N)NC(=O)[C@@H](Cc2ccccc2)NC(=O)[C@@H]2C[C@@H](O)CN2C1=O [Example 67, Ac-c[homoCys-Hyp-D-Phe-Arg-Trp-Cys]-Pro-Pro-Lys-Asp-Dap(BCMA)-Lys[(2-{2-[16-(tetrazol-5-yl)hexadecanoylamino]ethoxy}ethoxy)acetyl]-NH2] (Ac-[hCys][Hyp][dF]RWCPPKD[Dap](NTA)K([AEEA-Palmitoyl(16-(5-tetrazolyl))])-NH2; disulfide 1-6)	–	590 (≈ 1270 µg/mL)	–	–	–	–	–	> 10	–	–	533 (≈ 1150 µg/mL)	solubility ([2]; pH 3.3, Solubility Conc.): 600 µM (≈ 1290 µg/mL); solubility ([2]; pH 3.4, Solubility Conc.): 420 µM (≈ 906 µg/mL); solubility ([2]; pH 3.6, Solubility Conc.): 250 µM (≈ 539 µg/mL); solubility ([2]; pH 4.1, Solubility Conc.): 37 µM (≈ 79.8 µg/mL); solubility ([2]; pH 5.4, Solubility Conc.): 38 µM (≈ 81.9 µg/mL); solubility ([2]; pH 5.9, Solubility Conc.): 207 µM (≈ 446 µg/mL); solubility ([2]; pH 6.3, Solubility Conc.): 482 µM (≈ 1040 µg/mL); solubility ([2]; pH 6.8, Solubility Conc.): 587 µM (≈ 1270 µg/mL)
CC(=O)N[C@H]1CCNC(=O)C[C@@H](C(=O)N2CCC[C@H]2C(=O)N2CCC[C@H]2C(=O)N[C@@H](CCCNC(=N)N)C(=O)N[C@@H](CCC(=O)O)C(=O)N[C@@H](CCCCN(CC(=O)O)CC(=O)O)C(=O)N[C@@H](CO)C(=O)N[C@@H](CO)C(=O)NCCOCCOCCNC(=O)CCCCCCCCCCCCCCCCC(=O)O)NC(=O)[C@H](Cc2c[nH]c3ccccc23)NC(=O)[C@H](CCCNC(=N)N)NC(=O)[C@@H](Cc2ccccc2)NC(=O)[C@H](Cc2c[nH]cn2)NC1=O [Example 9, Ac-c[Dab-His-D-Phe-Arg-Trp-Asp]-Pro-Pro-Arg-Glu-Lys(biscarboxymethyl)-Ser-Ser-NH(2-{2-[2-(17-carboxyheptadecanoylamino)ethoxy]ethoxy}ethyl)] (Ac-[Dab]H[dF]RWDPPRE[Lys(CH2CO2H)2]SS-X1; lactam 1-6)	–	158 (≈ 349 µg/mL)	183 (≈ 404 µg/mL)	–	–	–	–	> 10	242 (≈ 534 µg/mL)	40 (≈ 88.3 µg/mL)	–	solubility ([2]; pH 4.7, Solubility Conc.): 26 µM (≈ 57.4 µg/mL); solubility ([2]; pH 5.2, Solubility Conc.): 22 µM (≈ 48.6 µg/mL); solubility ([2]; pH 6.6, Solubility Conc.): 79 µM (≈ 174 µg/mL); solubility ([2]; pH 7.9, Solubility Conc.): 259 µM (≈ 572 µg/mL); solubility ([2]; pH 8.2, Solubility Conc.): 280 µM (≈ 618 µg/mL)
